# Assay results as given in US9944645B2, “Imidazotriazines and imidazopyrimidines as kinase inhibitors” (Incyte Holdings Corporation, priority 2006, dated 2018).
# Molecular target: c-Met kinase (h-Met; histidine-tagged c-Met catalytic domain fusion protein) (Homo sapiens (Human), UniProt P08581)
# Test: In Vitro c-Met Kinase Enzyme Assays
# Type: biochemical
# Settings: phosphorylation of poly Glu-Tyr, 5 μM ATP, 25 minutes at 30° C.
# Summary of the method: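 His-tagged c-Met catalytic domain reacted 25 min at 30° C, within the linear initial-rate range. Phosphotyrosine detected by ELISA with peroxidase-labeled anti-phospho-tyrosine antibody and TMB, OD read at 450 nm (540 nm correction); IC50 from curve fit.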
# Chain of c-Met kinase (h-Met; histidine-tagged c-Met catalytic domain fusion protein) (P08581 1078-1345): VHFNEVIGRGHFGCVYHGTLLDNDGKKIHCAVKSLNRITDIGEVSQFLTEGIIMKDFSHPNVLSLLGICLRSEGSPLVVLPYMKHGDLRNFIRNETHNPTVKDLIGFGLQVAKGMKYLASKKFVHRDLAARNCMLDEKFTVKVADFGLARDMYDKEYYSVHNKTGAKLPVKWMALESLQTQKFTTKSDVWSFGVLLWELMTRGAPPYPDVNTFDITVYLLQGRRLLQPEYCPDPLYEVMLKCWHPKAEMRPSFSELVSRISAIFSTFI
row,SMILES,IC50 [nM]
1,"CN(C)S(=O)(=O)c1ccc(-c2cnc3ncc(C4(c5ccc6ncccc6c5)CC4)n3c2)cc1 [Example 65, N,N-Dimethyl-4-[3-(1-quinolin-6-ylcyclopropyl)imidazo[1,2-a]pyrimidin-6-yl]benzenesulfonamide]",< 500
2,"Fc1ccc(-c2cnc3ncc(C4(c5ccc6ncccc6c5)CC4)n3c2)cc1 [Example 6, 6-(1-(6-(4-Fluorophenyl)imidazo[1,2-a]pyrimidin-3-yl)cyclopropyl)quinoline]",< 500
3,"CN(C)C(=O)NCc1ccc(-c2cnc3ncc(C4(c5ccc6ncccc6c5)CC4)n3c2)cc1F [Example 67, N′-2-Fluoro-4-[3-(1-quinolin-6-ylcyclopropyl)imidazo[1,2-a]pyrimidin-6-yl]benzyl-N,N-dimethylurea]",< 500
4,"O=C(NCC1CCCO1)c1cnc2ncc(C3(c4ccc5ncccc5c4)CC3)n2c1 (stereo not shown) [Example 27, 3-(1-Quinolin-6-ylcyclopropyl)-N-(tetrahydrofuran-2-ylmethyl)imidazo[1,2-a]pyrimidine-6-carboxamide]",< 500
5,"CN(C)C(=O)c1cccc(-c2cnc3ncc(C4(c5ccc6ncccc6c5)CC4)n3c2)c1 [Example 48, N,N-Dimethyl-3-[3-(1-quinolin-6-ylcyclopropyl)imidazo[1,2-a]pyrimidin-6-yl]benzamide]",< 500
6,"O=C(NCCOc1ccccc1)c1ccc(-c2cnc3ncc(C4(c5ccc6ncccc6c5)CC4)n3c2)cc1 [Example 42, N-(2-Phenoxyethyl)-4-[3-(1-quinolin-6-ylcyclopropyl)imidazo[1,2-a]pyrimidin-6-yl]benzamide]",< 500
7,"O=C(NC1CC1)c1cc(F)c(-c2cnc3ncc(C4(c5ccc6ncccc6c5)CC4)n3c2)cc1F [Example 79, N-Cyclopropyl-2,5-difluoro-4-[3-(1-quinolin-6-ylcyclopropyl)imidazo[1,2-a]pyrimidin-6-yl]benzamide]",< 500
8,"CC(C)(C)[C@H](NC(=O)c1ccc(-c2cnc3ncc(C4(c5ccc6ncccc6c5)CC4)n3c2)cc1F)C(=O)N1CCC1 [Example 198, N-[(1S)-1-(Azetidin-1-ylcarbonyl)-2,2-dimethylpropyl]-2-fluoro-4-[3-(1-quinolin-6-ylcyclopropyl)imidazo[1,2-a]pyrimidin-6-yl]benzamide]",< 500
9,"Fc1ccc(-c2cnc3ncc(C4(c5ccc6ncccc6c5)CC4)n3n2)cc1 [Example 3, 6-(1-(2-(4-Fluorophenyl)imidazo[1,2-b][1,2,4]-triazin-7-yl)cyclopropyl)quinoline]",< 500
10,"CS(=O)(=O)N1CCN(c2ccc(-c3cnc4ncc(C5(c6ccc7ncccc7c6)CC5)n4c3)cn2)CC1 [Example 54, 6-[1-(6-{6-[4-(Methylsulfonyl)piperazin-1-yl]pyridin-3-yl}imidazo[1,2-a]pyrimidin-3-yl)cyclopropyl]quinoline]",< 500
11,"O=C(NCC1CCCO1)c1ccc(-c2cnc3ncc(C4(c5ccc6ncccc6c5)CC4)n3c2)cc1 (stereo not shown) [Example 31, 4-[3-(1-Quinolin-6-ylcyclopropyl)imidazo[1,2-a]pyrimidin-6-yl]-N-(tetrahydrofuran-2-ylmethyl)benzamide]",< 500
12,"O=C1OCCN1c1ccc(-c2cnc3ncc(C4(c5ccc6ncccc6c5)CC4)n3c2)cc1F [Example 82, 3-{2-Fluoro-4-[3-(1-quinolin-6-ylcyclopropyl)imidazo[1,2-a]pyrimidin-6-yl]phenyl}-1,3-oxazolidin-2-one]",< 500
13,"O=C(c1ccc(-c2cnc3ncc(C4(c5ccc6ncccc6c5)CC4)n3c2)cc1)N1CCC(c2ccccn2)C1 (stereo not shown) [Example 38, 6-[1-(6-{4-[(3-Pyridin-2-ylpyrrolidin-1-yl)carbonyl]phenyl}imidazo[1,2-a]pyrimidin-3-yl)cyclopropyl]quinoline]",< 500
14,"CC(C)(C)[C@H](NC(=O)c1ccc(-c2cnc3ncc(C4(c5ccc6ncccc6c5)CC4)n3c2)cn1)C(=O)N1CCC1 [Example 58, N-[(1S)-1-(Azetidin-1-ylcarbonyl)-2,2-dimethylpropyl]-5-[3-(1-quinolin-6-ylcyclopropyl)imidazo[1,2-a]pyrimidin-6-yl]pyridine-2-carboxamide]",< 500
15,"COc1ccc(Sc2cnc3ncc(-c4ccc(F)cc4)nn23)cc1 [Example 20, 2-(4-fluorophenyl)-7-[(4-methoxyphenyl)thio]imidazo[1,2-b][1,2,4]triazine]",< 500
16,"Cc1nc(-c2cnc3ncc(C4(c5ccc6ncccc6c5)CC4)n3c2)cs1 [Example 73, 6-{1-[6-(2-Methyl-1,3-thiazol-4-yl)imidazo[1,2-a]pyrimidin-3-yl]cyclopropyl}quinoline]",< 500
17,"CNC(=O)C(O)c1ccc(-c2cnc3ncc(C4(c5ccc6ncccc6c5)CC4)n3c2)cc1F (stereo not shown) [Example 190, 2-{2-Fluoro-4-[3-(1-quinolin-6-ylcyclopropyl)imidazo[1,2-a]pyrimidin-6-yl]phenyl}-2-hydroxy-N-methylacetamide]",< 500

row,SMILES,IC50 [nM]
1,"CC(NC(=O)C1(c2ccc(-c3cnc4ncc(C5(c6ccc7ncccc7c6)CC5)n4c3)cc2)CC1)c1ccccn1 (stereo not shown) [Example 188, N-(1-Pyridin-2-ylethyl)-1-{4-[3-(1-quinolin-6-ylcyclopropyl)imidazo[1,2-a]pyrimidin-6-yl]phenyl}cyclopropanecarboxamide]",< 500
2,"CN(C)C(=O)N1CCN(c2ccc(-c3cnc4ncc(C5(c6ccc7ncccc7c6)CC5)n4c3)cn2)CC1 [Example 55, N,N-Dimethyl-4-{5-[3-(1-quinolin-6-ylcyclopropyl)imidazo[1,2-a]pyrimidin-6-yl]pyridin-2-yl}piperazine-1-carboxamide]",< 500
3,"CN(C)C(=O)[C@@H](NC(=O)c1ccc(-c2cnc3ncc(Cc4ccc5ncccc5c4)n3n2)cc1F)C(C)(C)C [Example 132, N-(1S)-1-[(Dimethylamino)carbonyl]-2,2-dimethylpropyl-2-fluoro-4-[7-(quinolin-6-ylmethyl)imidazo[1,2-b][1,2,4]triazin-2-yl]benzamide]",< 500
4,"O=C(NCC1CCCO1)c1ccc(-c2cnc3ncc(C4(c5ccc6ncccc6c5)CC4)n3c2)cc1F (stereo not shown) [Example 169, 2-Fluoro-4-[3-(1-quinolin-6-ylcyclopropyl)imidazo[1,2-a]pyrimidin-6-yl]-N-(tetrahydrofuran-2-ylmethyl)benzamide]",< 500
5,"COc1ccc(Oc2cnc3ncc(-c4ccc(Br)cc4)cn23)cc1 [Example 16, 6-(4-Bromophenyl)-3-(4-methoxyphenoxy)imidazo[1,2-a]pyrimidine]",< 3000
6,"O=C(c1ccc(-c2cnc3ncc(C4(c5ccc6ncccc6c5)CC4)n3n2)cc1)N1CC[C@@H](O)C1 [Example 112, (3R)-1-{4-[7-(1-quinolin-6-ylcyclopropyl)imidazo[1,2-b][1,2,4]triazin-2-yl]benzoyl}pyrrolidin-3-ol]",< 500
7,"CC(C)C[C@H](NC(=O)c1ccc(-c2cnc3ncc(Cc4ccc5ncccc5c4)n3n2)cc1F)C(=O)N(C)C [Example 134, N-{(1S)-1-[(Dimethylamino)carbonyl]-3-methylbutyl}-2-fluoro-4-[7-(quinolin-6-ylmethyl)imidazo[1,2-b][1,2,4]triazin-2-yl]benzamide]",< 500
8,"O=C(Nc1nccs1)c1ccc(-c2cnc3ncc(C4(c5ccc6ncccc6c5)CC4)n3n2)cc1 [Example 119, 4-[7-(1-Quinolin-6-ylcyclopropyl)imidazo[1,2-b][1,2,4]triazin-2-yl]-N-1,3-thiazol-2-ylbenzamide]",< 500
9,"O=C(NCc1cccnc1)c1ccc(-c2cnc3ncc(Cc4ccc5ncccc5c4)n3n2)cc1F [Example 152, 2-Fluoro-N-(pyridin-3-ylmethyl)-4-[7-(quinolin-6-ylmethyl)imidazo[1,2-b][1,2,4]triazin-2-yl]benzamide]",< 500
10,"C[C@H](NC(=O)c1ccc(-c2cnc3ncc(C4(c5ccc6ncccc6c5)CC4)n3c2)cn1)C(=O)N(C)C [Example 61, N-[(1S)-2-(Dimethylamino)-1-methyl-2-oxoethyl]-5-[3-(1-quinolin-6-ylcyclopropyl)imidazo[1,2-a]pyrimidin-6-yl]pyridine-2-carboxamide]",< 500
11,"CNC(=O)c1ccc(-c2ccc(-c3cnc4ncc(C5(c6ccc7ncccc7c6)CC5)n4c3)cc2F)cn1 [Example 85, 5-{2-Fluoro-4-[3-(1-quinolin-6-ylcyclopropyl)imidazo[1,2-a]pyrimidin-6-yl]phenyl}-N-methylpyridine-2-carboxamide]",< 500
12,"Cn1cc(-c2cnc3ncc(C4(c5ccc6ncccc6c5)CC4)n3c2)cn1 [Example 90, 6-{1-[6-(1-Methyl-1H-pyrazol-4-yl)imidazo[1,2-a]pyrimidin-3-yl]cyclopropyl}quinoline]",< 500
13,"CC(NC(=O)c1ccc(-c2cnc3ncc(C4(c5ccc6ncccc6c5)CC4)n3c2)cc1F)C(=O)N(C)C (stereo not shown) [Example 199, N-[2-(Dimethylamino)-1-methyl-2-oxoethyl]-2-fluoro-4-[3-(1-quinolin-6-ylcyclopropyl)imidazo[1,2-a]pyrimidin-6-yl]benzamide]",< 500
14,"O=C(c1ccc(-c2cnc3ncc(Cc4ccc5ncccc5c4)n3n2)cc1F)N1CC[C@@H](O)C1 [Example 126, (3R)-1-{2-Fluoro-4-[7-(quinolin-6-ylmethyl)imidazo[1,2-b][1,2,4]triazin-2-yl]benzoyl}pyrrolidin-3-ol]",< 500
15,"O=C(NC1CCCCC1)c1cnc2ncc(C3(c4ccc5ncccc5c4)CC3)n2c1 [Example 26, N-Cyclohexyl-3-(1-quinolin-6-ylcyclopropyl)imidazo[1,2-a]pyrimidine-6-carboxamide]",< 500
16,"O=C(NCCc1ccccn1)c1ccc(-c2cnc3ncc(Cc4ccc5ncccc5c4)n3n2)cc1F [Example 154, 2-Fluoro-N-(2-pyridin-2-ylethyl)-4-[7-(quinolin-6-ylmethyl)imidazo[1,2-b][1,2,4]triazin-2-yl]benzamide]",< 500
17,"O=C(NCc1ccccn1)c1cccc(-c2cnc3ncc(C4(c5ccc6ncccc6c5)CC4)n3c2)c1 [Example 47, N-(Pyridin-2-ylmethyl)-3-[3-(1-quinolin-6-ylcyclopropyl)imidazo[1,2-a]pyrimidin-6-yl]benzamide]",< 500
